Series [1] addresses T1, hOAT3 (Homo sapiens, UniProt Q8TCC7).
T1 sequence (Q8TCC7 1-542): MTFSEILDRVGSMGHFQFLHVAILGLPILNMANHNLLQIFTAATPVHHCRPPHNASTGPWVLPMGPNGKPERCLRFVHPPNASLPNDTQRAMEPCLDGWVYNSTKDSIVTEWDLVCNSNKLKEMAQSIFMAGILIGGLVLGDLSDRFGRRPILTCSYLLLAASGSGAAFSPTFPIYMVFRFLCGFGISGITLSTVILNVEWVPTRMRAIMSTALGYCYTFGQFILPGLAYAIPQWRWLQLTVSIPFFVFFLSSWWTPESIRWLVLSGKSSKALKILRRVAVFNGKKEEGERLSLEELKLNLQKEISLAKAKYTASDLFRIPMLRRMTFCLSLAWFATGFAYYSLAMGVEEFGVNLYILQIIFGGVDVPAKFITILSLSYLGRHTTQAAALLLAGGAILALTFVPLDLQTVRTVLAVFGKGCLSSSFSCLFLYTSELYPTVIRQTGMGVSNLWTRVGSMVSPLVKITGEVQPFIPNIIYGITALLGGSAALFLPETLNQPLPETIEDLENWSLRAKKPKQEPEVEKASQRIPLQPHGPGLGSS
The arrangement: expressed in transfected cells; host or cells: HEK293 (HEK-hOAT3), gift of Dr. Atsushi Yonezawa, Kyoto University Hospital; mock control HEK-pBK (pBKCMV vector). The note with it: cited from earlier work; for Ki: read-out: Ki against hOAT3.

A short description of series [2]: Pharmacokinetics of methotrexate after intravenous administration with and without febuxostat in rats. The class given is in vivo, rat. The conditions noted are these: for Vd / half-life / k el / AUC(0-t) / clearance: male, Wistar, rat, plasma, iv, 2 mg/kg, methotrexate 2 mg/kg i.v., mean ± S.D.; for Vd / half-life / k el: n = 4; for AUC(0-t): n = 4, read-out: AUC0–90 min (converted); for clearance: n = 4, read-out: CLtot. The source says: Nine‐week‐old male Wistar rats (SLC Japan Co., Shizuoka, Japan) were used for the pharmacokinetics study. All animal procedures were approved by the Animal Experiments Committee of The University of Osaka (No. 03‐018‐000) and conducted in accordance with the Japanese Law for the Protection and Management of Animals, the Standards Relating to the Care and Management of Laboratory Animals and Relief of Pain, and other relevant regulations and guidelines for animal experimentation. The rats were anesthetized with an intraperitoneal injection of a mixture of medetomidine, midazolam, and butorphanol at doses of 0.38, 2.0, and 2.5 mg/kg, respectively. Polyethylene catheters were implanted into the femoral vein and femoral artery to administer the drug and facilitate frequent blood collection. […] The area under the plasma concentration–time curve from 0 to 90 min (AUC0–90 min) was calculated using the trapezoidal rule. Moreover, the systemic clearance (CLtot), elimination rate constant from the central compartment (Kel), distribution volume of the central compartment (Vd), and half‐life (T1/2) were calculated according to the procedures for 2‐compartmental analysis.
(§1) The entire LC gradient was 16 min.

Series [3] has as its target T1, hOAT3. The note with it: 10 μM methotrexate, 2, 5, 10 and 15 min, 37°C, all time points.
The test system of the next series is rOAT3. Also noted: method as in Nozaki et al. [2004]. The conditions noted are these: rat kidney slices; ref Nozaki et al. [2004]; cited from earlier work.
On the set-up of series [4]: method as in Bleyer [1978]. The conditions noted are these: within 30 h of administration; ref Bleyer [1978]; cited from earlier work.
Series [5] addresses T1, hOAT3. Nature of the series: Uptake of 6-CF in HEK-pBK and HEK-hOAT3 cells and its inhibition by probenecid. The arrangement: expressed in transfected cells; host or cells: HEK293 (HEK-hOAT3), gift of Dr. Atsushi Yonezawa, Kyoto University Hospital; mock control HEK-pBK (pBKCMV vector). The note with it: 5 μM 6-CF, 2 min, 37°C. The class given is cell-based. The method, then: The cells were incubated for 2 min at 37°C with 5 µM 6‐CF (pH 7.4) in the absence or presence of probenecid (100 µM).

The target in series [6] is T1, hOAT3. Nature of the series: Inhibition of hOAT3-mediated methotrexate transport by febuxostat in HEK-hOAT3 cells (inhibition plot, Dixon plot). The class given is cell-based. The arrangement: expressed in transfected cells; host or cells: HEK293 (HEK-hOAT3), gift of Dr. Atsushi Yonezawa, Kyoto University Hospital; mock control HEK-pBK (pBKCMV vector). The method, then: as §1

Details of series [7]: method as in Zhang et al. [2014]. The note with it: human, 40–120 mg febuxostat orally; ref Zhang et al. [2014]; cited from earlier work.
On the set-up of series [8]: method as in Yu et al. [2023]. The note with it: rats; ref Yu et al. [2023]; cited from earlier work.
Details of series [9]: method as in review report of febuxostat (Feburic Tablet). The note with it: rats, 5 min after febuxostat 1 mg/kg i.v.; ref review report of febuxostat (Feburic Tablet); cited from earlier work.
Series [10] can be described thus: Cmax of febuxostat after oral administration in human. The conditions noted are these: 40–120 mg febuxostat orally, estimated from Cmax and protein binding. The class given is in vivo.
Substrate in series [11]: CN(Cc1cnc2nc(N)nc(N)c2n1)c1ccc(C(=O)N[C@@H](CCC(=O)O)C(=O)O)cc1
The series can be described thus: cells, lysate or membranes named. The note with it: other: 2 min, 37°C, pH 7.4, uptake in HEK-pBK subtracted from HEK-hOAT3, mean ± S.E.

[12] abbreviates: HEK-hOAT3 cells, estron-3-sulfate as substrate, ref Tang et al. [2022].

In general, Ki refers to the equilibrium dissociation constant of an inhibitor or competing ligand from its target. A word on the Vd: it is a proportionality between amount in the body and measured concentration, not a real space. A low value points to little distribution into tissue. A word on the half-life: it is the time needed for the level to fall by half in the phase considered. Lower therefore signals fast loss. The term IC50 denotes the midpoint of a concentration-inhibition curve. Low values mean inhibition by little substance, high ones a need for much substance. A word on the Cmax: it is the maximum level reached in the sampled fluid or tissue. One may read the Km as the concentration of substrate that gives half-maximal velocity.

Read-outs that look alike come from different tables or passages of the source.

`Cc1nc(-c2ccc(OCC(C)C)c(C#N)c2)sc1C(=O)O[C@@H]1O[C@H](C(=O)O)[C@@H](O)[C@H](O)[C@H]1O` [febuxostat acyl‐β‐D‐glucuronide]: on hOAT3 [1] (setting [12]), the “inhibitory type against hOAT3” value is “competitive” and the Ki is 6110 nM.

Consider `CN(Cc1cnc2nc(N)nc(N)c2n1)c1ccc(C(=O)N[C@@H](CCC(=O)O)C(=O)O)cc1` [methotrexate], for which, in series [2] (febuxostat (+) 1 mg/kg i.v.), the Vd turned out to be 0.433 ± 0.088 L/kg, the half-life amounted to 14 ± 4.6 min, the k el is 0.000833 s⁻¹ and the AUC(0-t) is 4350 ng·h/mL. The clearance in series [2] (febuxostat (+) 1 mg/kg i.v.) is 8.02 ± 2.03 mL/min/kg. In series [2] (febuxostat (−)), the Vd came out at 0.378 ± 0.061 L/kg, the half-life worked out at 6.4 ± 1.4 min, the k el was 0.00183 s⁻¹ and the AUC(0-t) is 2170 ng·h/mL. The clearance in series [2] (febuxostat (−)) was determined as 15.9 ± 3.56 mL/min/kg. Moreover, the “Plasma concentration of methotrexate with concomitant febuxostat” value in series [2] (methotrexate 2 mg/kg i.v. with febuxostat 1 mg/kg i.v. vs without, at 15, 30, 60 and 90 min) was “significantly increased”. The “Uptake in HEK-hOAT3 cells compared with HEK-pBK cells” value on hOAT3 [3] is listed as “significantly higher”. In addition, the “share of renal basolateral uptake for which rOAT3 is responsible” value in the series on rOAT3 is “approximately 50%”. For the same molecule, the “excreted in urine as unchanged drug” value in series [4] is reported as “approximately 95%”.

For `CCCN(CCC)S(=O)(=O)c1ccc(C(=O)O)cc1` [probenecid], the “Effect on uptake of 6-CF in HEK-hOAT3 cells” value at hOAT3 [5] (100 μM probenecid) is “potently inhibited”.

At hOAT3 [6], `Cc1nc(-c2ccc(OCC(C)C)c(C#N)c2)sc1C(=O)O` [febuxostat] had an IC50 of 650 ± 130 nM and a Ki of 630 ± 10 nM. On hOAT3 [6] (Dixon plot, HEK-hOAT3 cells), the “inhibitory type against hOAT3-mediated transport of methotrexate” value was “noncompetitive”. For the same molecule, the “ratio of unbound Cmax to Ki value” at hOAT3 [6] (human unbound Cmax 0.12–0.30 μM, Ki against hOAT3 0.63 μM) was 0.19–0.48. For the same molecule, the Cmax in series [7] is 5.3 to 13.5 µM. For the same molecule, the protein binding in [8] was 98.4%. The Ki at hOAT3 [1] (ref Tang et al. ([2022])) is 550 ± 150 nM. Besides, the “plasma concentration of febuxostat” value in series [9] is “approximately 24.1 μM”. Also, the “unbound Cmax (clinical concentration)” value in series [10] was 0.12 to 0.30 µM.

In the case of `O=C(O)c1ccc(C(=O)O)c(-c2c3ccc(=O)cc-3oc3cc(O)ccc23)c1` [6‐CF, 6‐carboxyfluorescein], at hOAT3 [5] (pH 7.4), the “Uptake in HEK-hOAT3 cells relative to HEK-pBK cells” value was “approximately 17.4 fold”.

B1: hOAT3 (Homo sapiens) (protein)
chain: T1 sequence (Q8TCC7 1-542)
For the molecule B1, in [11], the Michaelis constant (Km) stood at 46.4 ± 9.2 µM and the Vmax came out at 287 ± 26 pmol/mg protein/min.

Values taken from article PMC12417622 (Biopharmaceutics & Drug Disposition, 2025).
